Test results as given in patent US20200171028A1, “METALLOENZYME INHIBITOR COMPOUNDS” (Viiamet Pharmaceuticals Holdings, LLC, priority 2017, published 2020).

Assays:
Type in all cases: biochemical
HDAC2 = HDAC2 (Homo sapiens, UniProt Q92769); experiment: HDAC2 enzymatic assay
Description: (§1) All enzymatic reactions were conducted in duplicate at room temperature for 17 hours in a 50 μl mixture containing HDAC assay buffer (50 mM Tris-HCl, pH 7.4, 137 mM NaCl, 2.7 mM KCl, 0.05% Tween 20, 5 μg BSA), an HDAC substrate, an HDAC enzyme, and a test compound. Compound dilution was prepared ten-fold higher than the final concentration of the compounds with 10% DMSO in HDAC assay buffer and 5 al of the dilution was added to a 50 al reaction so that the final concentration of DMSO is 1% in all of reactions. After enzymatic reactions, 50 μl of HDAC Developer was added to each well and the plate was incubated at room temperature for an additional 20 minutes. Fluorescence intensity was measured at an excitation of 360 nm and an emission of 460 nm using a Tecan Infinite M1000 or Biotek Synergy microplate reader. The fluorescent intensity data were analyzed using the computer software, Graphpad Prism. In the absence of the compound, the fluorescent intensity (Ft) in each data set was defined as 100% activity. In the absence of HDAC, the fluorescent intensity (Fb) in each data set was defined as 0% activity. The percent activity in the presence of each compound was calculated according to the following equation: % activity=(F−Fb)/(Ft−Fb), where F=the fluorescent intensity in the presence of the compound. […]

HDAC11 = target: T1, HDAC11 (Homo sapiens, UniProt Q96DB2); experiment: HDAC11 enzymatic assay; conditions: Table 3 comparison results
T1 sequence (Q96DB2 1-347): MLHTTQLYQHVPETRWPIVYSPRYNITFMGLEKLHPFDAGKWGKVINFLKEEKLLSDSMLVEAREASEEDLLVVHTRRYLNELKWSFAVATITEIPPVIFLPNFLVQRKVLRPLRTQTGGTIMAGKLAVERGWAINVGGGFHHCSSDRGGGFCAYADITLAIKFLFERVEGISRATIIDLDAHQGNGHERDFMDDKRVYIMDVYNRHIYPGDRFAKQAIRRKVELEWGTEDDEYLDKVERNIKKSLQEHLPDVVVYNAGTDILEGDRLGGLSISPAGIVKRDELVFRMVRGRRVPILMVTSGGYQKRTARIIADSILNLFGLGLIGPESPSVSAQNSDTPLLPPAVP
Description: as §1

HDAC6 = target: T2, HDAC6 (Homo sapiens, UniProt Q9UBN7); experiment: HDAC6 enzymatic assay; conditions: Table 3 comparison results
T2 sequence (Q9UBN7 1-1215): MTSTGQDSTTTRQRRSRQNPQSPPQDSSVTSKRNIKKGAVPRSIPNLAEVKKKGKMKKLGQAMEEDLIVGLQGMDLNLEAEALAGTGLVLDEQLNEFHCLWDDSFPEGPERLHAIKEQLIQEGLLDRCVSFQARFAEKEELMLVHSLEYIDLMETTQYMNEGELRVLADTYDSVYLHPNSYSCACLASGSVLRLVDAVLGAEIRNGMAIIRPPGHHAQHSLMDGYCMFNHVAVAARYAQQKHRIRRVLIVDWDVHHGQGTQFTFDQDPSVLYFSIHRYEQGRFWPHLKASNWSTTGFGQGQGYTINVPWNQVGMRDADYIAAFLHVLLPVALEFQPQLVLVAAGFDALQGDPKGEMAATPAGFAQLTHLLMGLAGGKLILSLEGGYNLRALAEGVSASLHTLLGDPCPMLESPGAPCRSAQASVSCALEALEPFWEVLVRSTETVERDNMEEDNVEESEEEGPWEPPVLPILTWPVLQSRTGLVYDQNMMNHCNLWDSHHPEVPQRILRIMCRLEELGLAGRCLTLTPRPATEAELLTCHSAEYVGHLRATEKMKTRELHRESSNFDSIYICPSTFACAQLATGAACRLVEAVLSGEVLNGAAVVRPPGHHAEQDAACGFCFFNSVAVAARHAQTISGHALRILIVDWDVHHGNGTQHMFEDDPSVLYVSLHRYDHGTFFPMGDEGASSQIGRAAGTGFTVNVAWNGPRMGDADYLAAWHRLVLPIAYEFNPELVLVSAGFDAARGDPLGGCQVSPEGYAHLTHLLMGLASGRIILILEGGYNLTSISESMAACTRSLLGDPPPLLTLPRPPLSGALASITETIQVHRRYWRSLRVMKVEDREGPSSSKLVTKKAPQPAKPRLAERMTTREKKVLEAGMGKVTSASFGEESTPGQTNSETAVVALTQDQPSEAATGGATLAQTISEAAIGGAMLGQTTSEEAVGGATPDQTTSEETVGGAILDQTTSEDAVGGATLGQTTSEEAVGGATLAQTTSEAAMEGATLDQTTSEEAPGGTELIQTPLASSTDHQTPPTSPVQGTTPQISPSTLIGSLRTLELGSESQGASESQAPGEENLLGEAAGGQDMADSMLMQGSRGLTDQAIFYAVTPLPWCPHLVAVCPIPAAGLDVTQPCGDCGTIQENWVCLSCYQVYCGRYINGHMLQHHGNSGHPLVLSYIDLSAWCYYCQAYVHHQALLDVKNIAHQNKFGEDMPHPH
Description: as §1

HDAC3/NCOR2 = HDAC3/NCOR2 (Homo sapiens, UniProt O15379); experiment: HDAC3 enzymatic assay
Description: as §1

HDAC7 = target: T3, HDAC7 (Homo sapiens, UniProt Q8WUI4); experiment: HDAC7 enzymatic assay; conditions: Table 3 comparison results
T3 sequence (Q8WUI4 1-952): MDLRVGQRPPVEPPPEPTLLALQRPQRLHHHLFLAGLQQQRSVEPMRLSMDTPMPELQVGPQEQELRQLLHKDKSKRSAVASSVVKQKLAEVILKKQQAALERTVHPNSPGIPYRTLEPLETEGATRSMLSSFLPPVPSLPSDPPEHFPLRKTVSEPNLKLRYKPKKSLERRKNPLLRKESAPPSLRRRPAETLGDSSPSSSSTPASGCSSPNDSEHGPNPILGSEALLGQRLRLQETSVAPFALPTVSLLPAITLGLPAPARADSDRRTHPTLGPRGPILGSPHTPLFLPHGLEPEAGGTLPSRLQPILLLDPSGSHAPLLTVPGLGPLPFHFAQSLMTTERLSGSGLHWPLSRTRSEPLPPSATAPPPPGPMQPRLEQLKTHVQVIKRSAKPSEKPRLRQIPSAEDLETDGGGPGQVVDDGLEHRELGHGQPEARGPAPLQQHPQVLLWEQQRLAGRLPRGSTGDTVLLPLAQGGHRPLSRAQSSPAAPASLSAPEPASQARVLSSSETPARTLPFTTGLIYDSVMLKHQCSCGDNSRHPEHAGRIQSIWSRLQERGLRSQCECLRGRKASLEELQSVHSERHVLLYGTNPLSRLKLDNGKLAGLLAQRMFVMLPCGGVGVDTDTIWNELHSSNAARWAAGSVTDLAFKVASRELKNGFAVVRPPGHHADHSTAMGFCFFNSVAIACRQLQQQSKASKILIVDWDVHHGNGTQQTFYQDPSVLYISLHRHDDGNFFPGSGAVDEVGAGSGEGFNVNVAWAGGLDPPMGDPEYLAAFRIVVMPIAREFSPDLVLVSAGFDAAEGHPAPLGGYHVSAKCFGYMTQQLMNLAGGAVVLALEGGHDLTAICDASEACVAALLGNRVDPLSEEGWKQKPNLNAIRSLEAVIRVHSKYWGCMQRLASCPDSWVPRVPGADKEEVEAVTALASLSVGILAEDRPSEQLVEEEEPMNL
Description: as §1

HDAC5 = HDAC5 (Homo sapiens, UniProt Q9UQL6); experiment: HDAC5 enzymatic assay; conditions: Table 3 comparison results
Description: as §1

HDAC8 = target: T4, HDAC8 (Homo sapiens, UniProt Q9BY41); experiment: HDAC8 enzymatic assay
T4 sequence (Q9BY41 1-377): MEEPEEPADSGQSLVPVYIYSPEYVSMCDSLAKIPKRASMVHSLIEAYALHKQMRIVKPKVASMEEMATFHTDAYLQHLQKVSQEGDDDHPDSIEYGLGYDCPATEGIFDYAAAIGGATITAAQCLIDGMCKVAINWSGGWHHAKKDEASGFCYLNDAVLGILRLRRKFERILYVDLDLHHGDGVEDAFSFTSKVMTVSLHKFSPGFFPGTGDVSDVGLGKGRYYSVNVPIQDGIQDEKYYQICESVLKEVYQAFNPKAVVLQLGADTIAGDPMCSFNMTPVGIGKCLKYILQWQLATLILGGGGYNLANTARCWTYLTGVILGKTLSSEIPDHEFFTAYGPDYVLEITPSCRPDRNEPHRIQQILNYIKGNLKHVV
Description: as §1

HDAC4 = HDAC4 (Homo sapiens, UniProt P56524); experiment: HDAC4 enzymatic assay; conditions: Table 3 comparison results
Description: as §1

HDAC9 = HDAC9 (Homo sapiens, UniProt Q9UKV0); experiment: HDAC9 enzymatic assay; conditions: Table 3 comparison results
Description: as §1

HDAC10 = target: T5, HDAC10 (Homo sapiens, UniProt Q969S8); experiment: HDAC10 enzymatic assay; conditions: Table 3 comparison results
T5 sequence (Q969S8 1-669): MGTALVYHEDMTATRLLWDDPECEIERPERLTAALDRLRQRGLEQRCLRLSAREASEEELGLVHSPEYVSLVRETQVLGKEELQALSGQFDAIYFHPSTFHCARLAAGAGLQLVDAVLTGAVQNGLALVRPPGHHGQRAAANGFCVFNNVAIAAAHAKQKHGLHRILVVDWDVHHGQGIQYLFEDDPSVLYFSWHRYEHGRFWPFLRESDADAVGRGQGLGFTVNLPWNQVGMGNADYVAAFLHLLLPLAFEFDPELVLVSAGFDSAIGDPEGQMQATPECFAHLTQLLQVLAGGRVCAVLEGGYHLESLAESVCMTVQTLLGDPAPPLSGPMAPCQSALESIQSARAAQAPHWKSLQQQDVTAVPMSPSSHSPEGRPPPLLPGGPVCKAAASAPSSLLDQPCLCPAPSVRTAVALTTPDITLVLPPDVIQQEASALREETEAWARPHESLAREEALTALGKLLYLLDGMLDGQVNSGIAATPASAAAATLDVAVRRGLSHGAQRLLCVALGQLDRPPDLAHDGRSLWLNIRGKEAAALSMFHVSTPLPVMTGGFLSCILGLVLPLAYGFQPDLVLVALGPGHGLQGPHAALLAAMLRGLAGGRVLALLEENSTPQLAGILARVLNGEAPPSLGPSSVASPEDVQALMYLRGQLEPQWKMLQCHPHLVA
Description: as §1

HDAC1 = HDAC1 (Homo sapiens, UniProt Q13547); experiment: HDAC1 enzymatic assay
Description: as §1

HDAC9, sequence (Q9UKV0 whole entry): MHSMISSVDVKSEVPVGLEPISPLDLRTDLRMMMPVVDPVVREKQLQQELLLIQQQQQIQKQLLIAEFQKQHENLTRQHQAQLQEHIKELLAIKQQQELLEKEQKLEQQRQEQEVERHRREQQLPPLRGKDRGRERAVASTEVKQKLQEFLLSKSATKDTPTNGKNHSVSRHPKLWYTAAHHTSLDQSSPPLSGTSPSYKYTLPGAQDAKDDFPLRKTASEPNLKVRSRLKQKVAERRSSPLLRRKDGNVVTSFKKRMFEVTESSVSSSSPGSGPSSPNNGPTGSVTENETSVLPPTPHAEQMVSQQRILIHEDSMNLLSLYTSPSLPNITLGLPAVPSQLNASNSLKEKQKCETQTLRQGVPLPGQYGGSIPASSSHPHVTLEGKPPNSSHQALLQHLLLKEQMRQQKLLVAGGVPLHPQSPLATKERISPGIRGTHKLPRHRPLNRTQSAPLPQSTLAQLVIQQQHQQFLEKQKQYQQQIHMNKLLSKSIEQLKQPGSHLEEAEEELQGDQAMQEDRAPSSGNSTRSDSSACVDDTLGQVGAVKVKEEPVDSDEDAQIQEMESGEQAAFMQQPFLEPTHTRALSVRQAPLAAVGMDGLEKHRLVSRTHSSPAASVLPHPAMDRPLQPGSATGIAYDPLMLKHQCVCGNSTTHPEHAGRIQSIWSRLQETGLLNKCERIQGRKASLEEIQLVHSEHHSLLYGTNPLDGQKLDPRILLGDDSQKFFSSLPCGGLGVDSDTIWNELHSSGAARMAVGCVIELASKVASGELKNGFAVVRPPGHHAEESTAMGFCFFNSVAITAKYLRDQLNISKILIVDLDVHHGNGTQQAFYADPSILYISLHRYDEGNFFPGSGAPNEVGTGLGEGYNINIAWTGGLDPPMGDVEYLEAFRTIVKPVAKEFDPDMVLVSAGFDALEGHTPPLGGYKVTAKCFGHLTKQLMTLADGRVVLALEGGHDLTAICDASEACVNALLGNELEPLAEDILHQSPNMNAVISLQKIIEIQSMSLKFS
HDAC5, sequence (Q9UQL6 whole entry): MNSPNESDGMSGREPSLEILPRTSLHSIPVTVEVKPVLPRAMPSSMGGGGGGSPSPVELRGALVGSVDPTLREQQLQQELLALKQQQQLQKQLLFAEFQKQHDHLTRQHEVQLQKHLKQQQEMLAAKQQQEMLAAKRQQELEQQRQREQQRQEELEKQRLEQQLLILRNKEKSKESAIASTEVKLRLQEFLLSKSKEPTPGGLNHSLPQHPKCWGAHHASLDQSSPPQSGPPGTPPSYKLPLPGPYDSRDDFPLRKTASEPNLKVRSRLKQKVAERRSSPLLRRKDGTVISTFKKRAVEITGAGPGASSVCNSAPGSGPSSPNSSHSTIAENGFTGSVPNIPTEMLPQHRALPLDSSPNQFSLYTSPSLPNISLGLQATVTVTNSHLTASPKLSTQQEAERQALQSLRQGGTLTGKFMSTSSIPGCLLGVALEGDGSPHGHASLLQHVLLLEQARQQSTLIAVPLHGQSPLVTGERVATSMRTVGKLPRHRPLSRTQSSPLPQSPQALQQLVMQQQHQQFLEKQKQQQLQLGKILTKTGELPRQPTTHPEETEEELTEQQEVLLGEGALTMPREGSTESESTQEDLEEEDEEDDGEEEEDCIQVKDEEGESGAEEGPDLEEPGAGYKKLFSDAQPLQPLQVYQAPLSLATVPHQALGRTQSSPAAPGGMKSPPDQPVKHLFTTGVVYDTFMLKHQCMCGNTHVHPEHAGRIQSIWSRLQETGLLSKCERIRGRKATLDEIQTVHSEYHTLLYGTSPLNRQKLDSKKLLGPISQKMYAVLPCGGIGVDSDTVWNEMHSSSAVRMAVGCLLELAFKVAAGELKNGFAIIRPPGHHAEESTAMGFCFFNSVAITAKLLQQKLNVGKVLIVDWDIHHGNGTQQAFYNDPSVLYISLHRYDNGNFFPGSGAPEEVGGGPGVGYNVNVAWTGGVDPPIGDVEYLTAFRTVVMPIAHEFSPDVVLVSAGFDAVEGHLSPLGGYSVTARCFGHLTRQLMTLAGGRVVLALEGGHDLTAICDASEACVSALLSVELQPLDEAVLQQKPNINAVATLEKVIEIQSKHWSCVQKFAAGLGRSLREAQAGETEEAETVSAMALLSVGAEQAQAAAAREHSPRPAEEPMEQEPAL
HDAC1, sequence (Q13547 whole entry): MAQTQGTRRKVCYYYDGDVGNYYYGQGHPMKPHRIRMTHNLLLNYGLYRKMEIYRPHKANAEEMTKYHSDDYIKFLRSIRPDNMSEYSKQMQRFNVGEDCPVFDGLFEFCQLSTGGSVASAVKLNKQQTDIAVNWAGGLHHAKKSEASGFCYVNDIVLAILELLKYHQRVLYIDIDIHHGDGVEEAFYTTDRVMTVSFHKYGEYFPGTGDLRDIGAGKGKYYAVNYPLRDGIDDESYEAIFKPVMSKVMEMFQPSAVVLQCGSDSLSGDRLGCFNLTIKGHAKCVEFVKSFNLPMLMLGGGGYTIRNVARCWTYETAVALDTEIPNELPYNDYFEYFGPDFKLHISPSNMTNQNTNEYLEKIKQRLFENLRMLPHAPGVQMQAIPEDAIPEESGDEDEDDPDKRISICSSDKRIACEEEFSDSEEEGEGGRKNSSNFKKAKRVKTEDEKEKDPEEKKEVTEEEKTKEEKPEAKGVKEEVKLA
HDAC2, sequence (Q92769 whole entry): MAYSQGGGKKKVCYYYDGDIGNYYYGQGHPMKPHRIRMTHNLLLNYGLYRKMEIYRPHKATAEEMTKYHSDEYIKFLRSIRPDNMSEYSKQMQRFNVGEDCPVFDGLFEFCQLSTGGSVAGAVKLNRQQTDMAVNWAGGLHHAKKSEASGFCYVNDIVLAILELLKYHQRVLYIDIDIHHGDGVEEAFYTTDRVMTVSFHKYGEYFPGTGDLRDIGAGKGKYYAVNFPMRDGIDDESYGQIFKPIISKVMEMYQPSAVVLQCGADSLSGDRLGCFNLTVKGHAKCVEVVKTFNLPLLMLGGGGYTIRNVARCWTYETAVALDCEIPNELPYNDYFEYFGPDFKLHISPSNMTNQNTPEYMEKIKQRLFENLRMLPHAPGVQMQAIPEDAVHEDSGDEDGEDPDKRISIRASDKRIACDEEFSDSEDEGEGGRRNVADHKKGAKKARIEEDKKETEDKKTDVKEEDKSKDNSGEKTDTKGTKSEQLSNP
HDAC4, sequence (P56524 whole entry): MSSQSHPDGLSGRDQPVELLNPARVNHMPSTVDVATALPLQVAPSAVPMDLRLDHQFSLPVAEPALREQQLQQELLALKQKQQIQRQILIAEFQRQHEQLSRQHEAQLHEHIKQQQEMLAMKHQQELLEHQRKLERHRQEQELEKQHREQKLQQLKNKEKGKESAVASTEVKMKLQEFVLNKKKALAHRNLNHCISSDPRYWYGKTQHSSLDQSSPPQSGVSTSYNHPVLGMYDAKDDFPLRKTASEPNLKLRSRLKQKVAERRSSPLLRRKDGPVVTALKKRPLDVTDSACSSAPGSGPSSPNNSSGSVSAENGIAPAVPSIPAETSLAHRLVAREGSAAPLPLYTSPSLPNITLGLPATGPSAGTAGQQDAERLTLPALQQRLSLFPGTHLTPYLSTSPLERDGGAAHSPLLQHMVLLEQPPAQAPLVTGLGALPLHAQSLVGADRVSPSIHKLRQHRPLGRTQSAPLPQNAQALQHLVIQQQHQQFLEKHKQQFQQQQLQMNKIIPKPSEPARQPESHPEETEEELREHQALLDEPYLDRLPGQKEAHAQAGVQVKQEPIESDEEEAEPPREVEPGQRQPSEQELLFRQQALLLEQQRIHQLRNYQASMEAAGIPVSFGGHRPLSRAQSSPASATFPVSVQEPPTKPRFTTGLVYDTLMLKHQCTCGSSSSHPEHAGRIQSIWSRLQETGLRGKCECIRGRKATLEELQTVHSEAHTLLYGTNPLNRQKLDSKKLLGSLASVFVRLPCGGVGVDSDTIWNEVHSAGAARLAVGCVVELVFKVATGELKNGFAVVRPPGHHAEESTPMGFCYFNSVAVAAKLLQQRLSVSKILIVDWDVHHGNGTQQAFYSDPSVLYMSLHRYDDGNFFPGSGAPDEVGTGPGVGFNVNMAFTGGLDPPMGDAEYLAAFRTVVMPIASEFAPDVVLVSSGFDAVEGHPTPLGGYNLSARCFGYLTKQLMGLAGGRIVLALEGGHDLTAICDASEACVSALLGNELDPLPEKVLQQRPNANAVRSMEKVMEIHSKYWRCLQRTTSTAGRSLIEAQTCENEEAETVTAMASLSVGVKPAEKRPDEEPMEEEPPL
HDAC3/NCOR2, sequence (Q9Y618 395-489): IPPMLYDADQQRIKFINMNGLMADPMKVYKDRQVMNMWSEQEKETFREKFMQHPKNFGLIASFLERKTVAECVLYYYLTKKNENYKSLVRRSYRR
HDAC3/NCOR2, sequence (O15379 whole entry): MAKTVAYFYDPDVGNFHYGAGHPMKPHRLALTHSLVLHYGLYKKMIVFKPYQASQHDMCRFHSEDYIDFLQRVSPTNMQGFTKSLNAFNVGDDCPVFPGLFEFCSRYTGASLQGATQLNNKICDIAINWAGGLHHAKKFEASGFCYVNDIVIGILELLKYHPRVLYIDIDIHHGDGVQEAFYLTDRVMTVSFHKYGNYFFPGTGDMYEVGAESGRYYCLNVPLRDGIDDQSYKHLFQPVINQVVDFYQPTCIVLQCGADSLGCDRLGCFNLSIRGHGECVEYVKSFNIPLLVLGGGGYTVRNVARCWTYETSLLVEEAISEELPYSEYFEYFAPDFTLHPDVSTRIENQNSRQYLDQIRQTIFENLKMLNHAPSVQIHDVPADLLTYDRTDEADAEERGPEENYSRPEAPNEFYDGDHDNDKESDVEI

Row | SMILES | IC50 (HDAC2) | IC50 (HDAC11) | IC50 (HDAC6) | IC50 (HDAC3/NCOR2) | IC50 (HDAC7) | IC50 (HDAC5) | IC50 (HDAC8) | IC50 (HDAC4) | IC50 (HDAC9) | IC50 (HDAC10) | IC50 (HDAC1)
1 | FC(F)(F)c1nc(-c2cnc(NC3(c4ccccc4)CC3)nc2)no1 | 13000 nM | > 30000 nM | 150 nM | 4100 nM | 20 nM | 250 nM | > 30000 nM | 13 nM | 77 nM | 6400 nM | 
2 | FC(F)c1nc(-c2cnc(NC3(c4ccccc4)CC3)nc2)no1 |  |  | 2900 nM |  |  |  |  |  |  |  | > 30000 nM
